In patent publication US11208412B2 (DAEGU-GYEONGBUK MEDICAL INNOVATION FOUNDATION, priority 2017, dated 2021):

How the values were obtained:
Test in all cases: Kinase selectivity, DiscoverX scanMAX Kinase assay panel (% control)
Type in all cases: binding
[1] = target: T1, kinases of the scanMAX Kinase assay panel (Homo sapiens, UniProt O14730); details: kinase RIOK3; 1 uM in DMSO
T1 construct: purchased DiscoverX Co. (contract measurement) scanMAX Kinase assay panel
T1 sequence (O14730 1-519): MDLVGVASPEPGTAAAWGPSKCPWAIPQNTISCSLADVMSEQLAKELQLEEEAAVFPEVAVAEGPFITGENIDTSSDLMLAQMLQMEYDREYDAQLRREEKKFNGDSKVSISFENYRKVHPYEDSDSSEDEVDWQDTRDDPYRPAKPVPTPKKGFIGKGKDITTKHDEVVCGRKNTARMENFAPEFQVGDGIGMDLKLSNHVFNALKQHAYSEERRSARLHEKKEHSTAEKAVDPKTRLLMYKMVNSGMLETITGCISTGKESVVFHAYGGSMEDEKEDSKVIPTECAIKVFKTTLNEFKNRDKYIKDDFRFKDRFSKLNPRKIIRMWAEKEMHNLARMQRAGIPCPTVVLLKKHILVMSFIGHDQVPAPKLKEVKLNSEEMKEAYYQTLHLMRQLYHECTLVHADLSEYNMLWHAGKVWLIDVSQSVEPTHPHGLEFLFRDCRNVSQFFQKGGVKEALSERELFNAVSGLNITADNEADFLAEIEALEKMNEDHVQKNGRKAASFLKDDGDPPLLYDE
Outline: (§1)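 Compounds were tested at 1 uM (in DMSO) against each panel kinase. % control was calculated as (compound − positive control)/(negative control − positive control)×100, where the positive control gives 0% and DMSO gives 100%. Activity toward a kinase was called at % control <35%.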

[2] = target: T2, kinases of the scanMAX Kinase assay panel (Homo sapiens, UniProt P00533); details: EGFR; 1 uM
T2 construct: purchased DiscoverX Co. (contract measurement) scanMAX Kinase assay panel
T2 sequence (P00533 25-1210): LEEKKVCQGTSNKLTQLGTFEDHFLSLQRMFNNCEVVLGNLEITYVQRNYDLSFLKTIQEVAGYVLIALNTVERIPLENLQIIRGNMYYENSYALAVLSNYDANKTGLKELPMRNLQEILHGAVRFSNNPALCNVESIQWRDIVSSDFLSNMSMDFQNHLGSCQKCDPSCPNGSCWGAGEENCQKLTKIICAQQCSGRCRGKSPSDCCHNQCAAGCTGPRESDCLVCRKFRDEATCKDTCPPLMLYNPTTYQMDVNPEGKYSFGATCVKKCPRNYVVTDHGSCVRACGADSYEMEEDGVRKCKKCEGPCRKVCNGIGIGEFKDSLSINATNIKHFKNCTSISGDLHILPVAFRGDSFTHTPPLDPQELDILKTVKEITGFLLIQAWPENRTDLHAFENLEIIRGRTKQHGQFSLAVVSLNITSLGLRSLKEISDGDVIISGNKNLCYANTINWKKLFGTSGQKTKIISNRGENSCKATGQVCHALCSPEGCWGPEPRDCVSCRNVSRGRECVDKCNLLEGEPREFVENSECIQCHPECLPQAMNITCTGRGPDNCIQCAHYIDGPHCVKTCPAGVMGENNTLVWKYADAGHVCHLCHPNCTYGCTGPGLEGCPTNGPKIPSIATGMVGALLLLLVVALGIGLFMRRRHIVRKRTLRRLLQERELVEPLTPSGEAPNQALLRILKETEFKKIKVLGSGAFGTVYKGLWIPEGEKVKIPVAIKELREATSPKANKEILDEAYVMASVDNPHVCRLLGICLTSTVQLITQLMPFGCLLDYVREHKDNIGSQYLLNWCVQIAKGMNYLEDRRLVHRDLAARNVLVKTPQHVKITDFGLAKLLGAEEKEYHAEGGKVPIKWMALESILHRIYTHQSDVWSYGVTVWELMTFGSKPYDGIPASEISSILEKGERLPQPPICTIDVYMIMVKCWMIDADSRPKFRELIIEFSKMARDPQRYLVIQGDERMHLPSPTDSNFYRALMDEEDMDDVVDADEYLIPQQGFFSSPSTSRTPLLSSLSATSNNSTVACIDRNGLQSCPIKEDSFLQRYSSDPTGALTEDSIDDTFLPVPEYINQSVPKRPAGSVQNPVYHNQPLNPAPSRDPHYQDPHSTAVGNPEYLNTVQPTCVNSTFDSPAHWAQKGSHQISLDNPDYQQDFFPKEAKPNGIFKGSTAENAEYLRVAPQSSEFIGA
Outline: as §1

[3] = target: T3, kinases of the scanMAX Kinase assay panel (Homo sapiens, UniProt P04629); details: kinase TRKA; 1 uM in DMSO
T3 construct: purchased DiscoverX Co. (contract measurement) scanMAX Kinase assay panel
Outline: as §1

[4] = target: T4, kinases of the scanMAX Kinase assay panel (Homo sapiens, UniProt P10721, L576P); details: KIT(L576P); 1 uM
T4 construct: purchased DiscoverX Co. (contract measurement) scanMAX Kinase assay panel
T4 sequence (P10721 26-976 L576P): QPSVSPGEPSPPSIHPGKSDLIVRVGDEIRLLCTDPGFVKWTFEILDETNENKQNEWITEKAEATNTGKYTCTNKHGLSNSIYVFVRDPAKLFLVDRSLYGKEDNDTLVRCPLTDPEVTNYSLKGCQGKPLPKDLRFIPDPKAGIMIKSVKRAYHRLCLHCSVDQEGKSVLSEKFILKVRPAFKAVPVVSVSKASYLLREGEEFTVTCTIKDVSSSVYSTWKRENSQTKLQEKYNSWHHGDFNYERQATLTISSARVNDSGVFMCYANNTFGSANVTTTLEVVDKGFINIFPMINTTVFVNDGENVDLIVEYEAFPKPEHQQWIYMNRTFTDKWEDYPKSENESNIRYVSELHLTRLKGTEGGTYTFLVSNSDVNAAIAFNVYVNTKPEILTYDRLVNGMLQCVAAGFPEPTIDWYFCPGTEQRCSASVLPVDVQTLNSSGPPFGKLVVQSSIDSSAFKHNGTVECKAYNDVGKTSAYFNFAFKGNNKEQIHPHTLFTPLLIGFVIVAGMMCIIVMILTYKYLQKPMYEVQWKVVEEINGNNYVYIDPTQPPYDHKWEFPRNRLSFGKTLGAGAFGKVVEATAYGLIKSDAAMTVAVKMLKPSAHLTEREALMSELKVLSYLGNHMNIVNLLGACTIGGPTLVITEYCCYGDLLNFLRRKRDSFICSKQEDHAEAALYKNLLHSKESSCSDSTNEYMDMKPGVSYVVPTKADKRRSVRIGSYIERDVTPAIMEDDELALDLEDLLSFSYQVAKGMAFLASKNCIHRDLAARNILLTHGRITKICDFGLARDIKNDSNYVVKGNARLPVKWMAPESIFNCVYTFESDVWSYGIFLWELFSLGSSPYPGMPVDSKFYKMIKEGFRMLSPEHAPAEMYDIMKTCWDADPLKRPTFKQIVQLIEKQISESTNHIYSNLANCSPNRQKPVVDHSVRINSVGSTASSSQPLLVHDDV
Outline: as §1

[5] = target: T5, kinases of the scanMAX Kinase assay panel (Homo sapiens, UniProt P19525); details: PRKR; 1 uM
T5 construct: purchased DiscoverX Co. (contract measurement) scanMAX Kinase assay panel
T5 sequence (P19525 whole entry): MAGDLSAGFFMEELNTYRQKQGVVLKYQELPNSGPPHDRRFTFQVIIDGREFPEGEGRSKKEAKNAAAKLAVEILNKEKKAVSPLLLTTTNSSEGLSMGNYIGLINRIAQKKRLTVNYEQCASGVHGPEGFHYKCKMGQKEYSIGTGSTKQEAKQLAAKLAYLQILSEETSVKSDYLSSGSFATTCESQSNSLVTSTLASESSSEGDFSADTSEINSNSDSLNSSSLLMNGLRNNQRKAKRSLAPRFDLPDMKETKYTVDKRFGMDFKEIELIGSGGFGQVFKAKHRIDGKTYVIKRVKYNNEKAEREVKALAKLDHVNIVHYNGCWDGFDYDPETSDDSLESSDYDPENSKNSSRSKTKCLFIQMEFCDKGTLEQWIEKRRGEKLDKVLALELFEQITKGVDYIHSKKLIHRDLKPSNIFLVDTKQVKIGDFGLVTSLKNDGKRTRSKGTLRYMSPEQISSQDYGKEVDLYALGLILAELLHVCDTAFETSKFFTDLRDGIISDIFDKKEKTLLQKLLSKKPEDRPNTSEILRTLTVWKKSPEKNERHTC
Outline: as §1

[6] = target: T6, kinases of the scanMAX Kinase assay panel (Homo sapiens, UniProt P45983); details: JNK1; 1 uM
T6 construct: purchased DiscoverX Co. (contract measurement) scanMAX Kinase assay panel
Outline: as §1

[7] = target: T7, kinases of the scanMAX Kinase assay panel (Homo sapiens, UniProt P48736); details: PIK3CG; 1 uM
T7 construct: purchased DiscoverX Co. (contract measurement) scanMAX Kinase assay panel
T7 sequence (P48736 whole entry): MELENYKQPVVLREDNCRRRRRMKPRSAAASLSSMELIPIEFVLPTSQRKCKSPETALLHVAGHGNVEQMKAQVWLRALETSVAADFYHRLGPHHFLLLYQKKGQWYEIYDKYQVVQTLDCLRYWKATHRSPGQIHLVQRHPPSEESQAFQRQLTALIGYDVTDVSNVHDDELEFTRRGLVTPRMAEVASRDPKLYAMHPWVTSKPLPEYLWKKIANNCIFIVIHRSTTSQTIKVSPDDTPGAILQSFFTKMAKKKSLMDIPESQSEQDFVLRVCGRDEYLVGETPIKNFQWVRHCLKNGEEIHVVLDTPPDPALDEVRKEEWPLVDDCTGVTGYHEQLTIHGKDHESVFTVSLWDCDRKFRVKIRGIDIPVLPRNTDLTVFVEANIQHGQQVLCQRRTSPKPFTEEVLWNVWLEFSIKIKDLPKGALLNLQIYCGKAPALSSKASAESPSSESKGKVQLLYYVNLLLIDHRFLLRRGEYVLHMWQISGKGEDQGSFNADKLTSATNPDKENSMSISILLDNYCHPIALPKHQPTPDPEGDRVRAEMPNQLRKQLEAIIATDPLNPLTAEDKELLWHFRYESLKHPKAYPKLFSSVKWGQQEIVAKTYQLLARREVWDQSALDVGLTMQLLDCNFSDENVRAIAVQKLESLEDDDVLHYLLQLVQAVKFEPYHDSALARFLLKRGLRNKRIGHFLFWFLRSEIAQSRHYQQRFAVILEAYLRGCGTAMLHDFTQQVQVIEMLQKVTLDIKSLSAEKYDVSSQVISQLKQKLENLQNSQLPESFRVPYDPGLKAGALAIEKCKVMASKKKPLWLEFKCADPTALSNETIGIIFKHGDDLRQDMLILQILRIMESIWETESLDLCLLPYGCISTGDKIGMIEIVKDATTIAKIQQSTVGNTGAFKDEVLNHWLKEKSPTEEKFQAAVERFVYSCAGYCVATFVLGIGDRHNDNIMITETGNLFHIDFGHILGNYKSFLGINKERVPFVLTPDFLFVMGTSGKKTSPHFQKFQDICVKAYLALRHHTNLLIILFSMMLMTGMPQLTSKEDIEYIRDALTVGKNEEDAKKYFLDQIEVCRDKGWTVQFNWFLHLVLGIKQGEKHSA
Outline: as §1

[8] = target: T8, kinases of the scanMAX Kinase assay panel (Homo sapiens, UniProt Q04759); details: PRKCQ; 1 uM
T8 construct: purchased DiscoverX Co. (contract measurement) scanMAX Kinase assay panel
T8 sequence (Q04759 whole entry): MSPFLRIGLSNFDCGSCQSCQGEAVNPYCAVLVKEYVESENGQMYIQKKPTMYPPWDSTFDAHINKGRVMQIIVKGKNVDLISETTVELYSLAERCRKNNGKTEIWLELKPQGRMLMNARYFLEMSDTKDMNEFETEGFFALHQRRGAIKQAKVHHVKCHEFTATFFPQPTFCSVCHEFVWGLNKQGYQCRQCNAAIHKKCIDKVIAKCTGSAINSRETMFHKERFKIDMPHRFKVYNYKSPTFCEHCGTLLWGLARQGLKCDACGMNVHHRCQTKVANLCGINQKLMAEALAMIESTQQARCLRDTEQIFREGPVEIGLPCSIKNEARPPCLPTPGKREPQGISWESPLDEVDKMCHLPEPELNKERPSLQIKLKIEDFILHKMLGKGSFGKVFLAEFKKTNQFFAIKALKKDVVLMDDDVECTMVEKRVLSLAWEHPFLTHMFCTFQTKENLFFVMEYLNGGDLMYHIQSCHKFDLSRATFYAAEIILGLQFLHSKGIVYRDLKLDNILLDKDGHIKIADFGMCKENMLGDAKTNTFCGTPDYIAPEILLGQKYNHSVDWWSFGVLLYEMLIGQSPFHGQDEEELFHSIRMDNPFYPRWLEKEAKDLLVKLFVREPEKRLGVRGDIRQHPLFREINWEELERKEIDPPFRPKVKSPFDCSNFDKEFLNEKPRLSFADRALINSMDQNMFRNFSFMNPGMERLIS
Outline: as §1

[9] = target: T9, kinases of the scanMAX Kinase assay panel (Homo sapiens, UniProt Q15139); details: PRKD1; 1 uM
T9 construct: purchased DiscoverX Co. (contract measurement) scanMAX Kinase assay panel
T9 sequence (Q15139 1-912): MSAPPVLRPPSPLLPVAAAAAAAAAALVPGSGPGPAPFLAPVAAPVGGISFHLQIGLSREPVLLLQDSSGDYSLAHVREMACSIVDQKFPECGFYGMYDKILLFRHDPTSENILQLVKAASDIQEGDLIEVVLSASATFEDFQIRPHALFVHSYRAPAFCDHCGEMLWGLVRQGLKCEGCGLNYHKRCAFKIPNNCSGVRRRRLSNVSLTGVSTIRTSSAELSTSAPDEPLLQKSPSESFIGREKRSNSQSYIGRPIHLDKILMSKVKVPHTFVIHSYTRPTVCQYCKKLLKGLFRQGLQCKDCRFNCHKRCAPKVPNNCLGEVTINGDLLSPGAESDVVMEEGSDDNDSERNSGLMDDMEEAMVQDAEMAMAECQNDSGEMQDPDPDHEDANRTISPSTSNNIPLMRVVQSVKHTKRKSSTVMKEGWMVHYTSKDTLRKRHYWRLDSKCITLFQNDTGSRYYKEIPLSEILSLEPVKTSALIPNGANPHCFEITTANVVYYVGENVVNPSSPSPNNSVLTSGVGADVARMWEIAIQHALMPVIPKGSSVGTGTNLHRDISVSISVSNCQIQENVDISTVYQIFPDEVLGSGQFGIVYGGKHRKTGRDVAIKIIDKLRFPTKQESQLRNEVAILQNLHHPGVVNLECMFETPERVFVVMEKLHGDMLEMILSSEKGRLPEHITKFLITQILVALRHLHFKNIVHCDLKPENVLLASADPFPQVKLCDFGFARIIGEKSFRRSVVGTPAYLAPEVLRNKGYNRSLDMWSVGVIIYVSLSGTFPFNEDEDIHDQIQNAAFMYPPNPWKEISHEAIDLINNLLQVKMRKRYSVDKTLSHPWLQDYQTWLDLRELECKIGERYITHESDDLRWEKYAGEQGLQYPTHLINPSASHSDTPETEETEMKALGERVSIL
Outline: as §1

[10] = target: T10, kinases of the scanMAX Kinase assay panel (Homo sapiens, UniProt Q9UPE1); details: kinase SRPK3; 1 uM in DMSO
T10 construct: purchased DiscoverX Co. (contract measurement) scanMAX Kinase assay panel
T10 sequence (Q9UPE1 whole entry): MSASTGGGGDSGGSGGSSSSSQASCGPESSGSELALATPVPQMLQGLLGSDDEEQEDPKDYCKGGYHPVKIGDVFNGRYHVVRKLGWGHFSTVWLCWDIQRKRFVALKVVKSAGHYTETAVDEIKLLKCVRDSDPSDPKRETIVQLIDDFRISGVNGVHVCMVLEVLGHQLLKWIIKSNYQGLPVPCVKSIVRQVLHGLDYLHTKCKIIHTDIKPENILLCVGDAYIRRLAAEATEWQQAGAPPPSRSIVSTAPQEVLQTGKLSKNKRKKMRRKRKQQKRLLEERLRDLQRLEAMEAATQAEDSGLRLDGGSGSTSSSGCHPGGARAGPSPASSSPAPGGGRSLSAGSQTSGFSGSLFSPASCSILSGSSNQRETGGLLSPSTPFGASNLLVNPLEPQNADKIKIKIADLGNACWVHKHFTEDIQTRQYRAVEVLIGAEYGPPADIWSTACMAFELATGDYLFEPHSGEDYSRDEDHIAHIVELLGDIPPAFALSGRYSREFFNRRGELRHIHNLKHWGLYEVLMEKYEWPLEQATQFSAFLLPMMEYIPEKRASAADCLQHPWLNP
Outline: as §1

Row | Compound | remaining binding at 1 µM [1] [%] | remaining binding at 1 µM [2] [%] | remaining binding at 1 µM [3] [%] | remaining binding at 1 µM [4] [%] | remaining binding at 1 µM [5] [%] | remaining binding at 1 µM [6] [%] | remaining binding at 1 µM [7] [%] | remaining binding at 1 µM [8] [%] | remaining binding at 1 µM [9] [%] | remaining binding at 1 µM [10] [%]
1 | CNc1nc(Nc2ccc(C(=O)N3CCOCC3)cc2OC)nc2[nH]cc(C#N)c12 [Example 1, 2-((2-methoxy-4-(morpholine-4-carbonyl)phenyl)amino)-4-(methylamino)-7H-pyrrolo[2,3-d]pyrimidine-5-carbonitrile] | 97 | 91 | 67 | 41 | 95 | 0 | 76 | 95 | 5.7 | 93
2 | CC1(Nc2nc(Nc3cnn([C@H]4CCN(C5COC5)C[C@@H]4F)c3Cl)nc3[nH]cc(C#N)c23)CC1 [Example 52, 2-((5-chloro-1-((3S,4S)-3-fluoro-1-(oxetane-3-yl)piperidine-4-yl)-1H-pyrazole-4-yl)amino)((1-methylcyclopropyl)amino)-7H-pyrrolo[2,3-d]pyrimidine-5-carbonitrile] | 0.4 | 31 | 0.5 | 0 | 42 | 0 | 8.5 | 47 | 12 | 2.5
3 | CCNc1nc(Nc2ccc(C(=O)N3CCC(N4CCOCC4)CC3)cc2OC)nc2[nH]cc(C(F)(F)F)c12 [Example 104, (4-((4-(ethylamino)-5-(trifluoromethyl)-7H-pyrrolo[2,3-d]pyrimidine-2-yl)amino)-3-methoxyphenyl)(4-morpholinopiperidine-1-yl)methanone] | 100 | 82 | 98 | 47 | 85 | 25 | 87 | 100 | 11 | 100
